Data published in US9446039B2, “Aminoheteroaryl compounds as MTH1 inhibitors” (CEMM—FORSCHUNGSZENTRUM FÜR MOLEKULARE MEDIZIN GMBH, priority 2012, dated 2016).

What was measured:
Format in all cases: binding
[1] = target: T1, SW480 colon carcinoma cells lysate proteins (Homo sapiens, UniProt O00154); conditions: PreyGene ACOT7
T1 sequence (O00154 1-380): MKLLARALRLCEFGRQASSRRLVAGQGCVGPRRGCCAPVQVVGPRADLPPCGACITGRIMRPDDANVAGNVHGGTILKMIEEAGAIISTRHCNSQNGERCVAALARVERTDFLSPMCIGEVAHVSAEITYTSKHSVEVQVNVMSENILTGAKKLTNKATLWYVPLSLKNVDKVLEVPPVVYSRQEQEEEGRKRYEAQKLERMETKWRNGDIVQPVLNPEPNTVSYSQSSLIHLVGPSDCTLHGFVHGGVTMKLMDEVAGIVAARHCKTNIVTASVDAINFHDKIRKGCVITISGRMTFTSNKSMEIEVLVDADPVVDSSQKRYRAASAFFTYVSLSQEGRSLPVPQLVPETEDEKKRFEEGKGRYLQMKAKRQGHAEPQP

[2] = target: T2, SW480 colon carcinoma cells lysate proteins (Homo sapiens, UniProt P00492); conditions: PreyGene HPRT1
T2 sequence (P00492 1-218): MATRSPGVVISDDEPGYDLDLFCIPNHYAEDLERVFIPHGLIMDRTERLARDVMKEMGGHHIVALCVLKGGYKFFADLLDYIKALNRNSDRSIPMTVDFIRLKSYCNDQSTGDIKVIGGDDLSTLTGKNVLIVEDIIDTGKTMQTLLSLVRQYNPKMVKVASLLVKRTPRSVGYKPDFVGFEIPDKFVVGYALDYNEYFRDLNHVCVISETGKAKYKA

[3] = target: SW480 colon carcinoma cells lysate proteins (Homo sapiens, UniProt P07237); conditions: PreyGene P4HB
[4] = target: SW480 colon carcinoma cells lysate proteins (Homo sapiens, UniProt Q01105); conditions: PreyGene SET
[5] = target: SW480 colon carcinoma cells lysate proteins (Homo sapiens, UniProt Q13200); conditions: PreyGene PSMD2
[6] = target: T3, SW480 colon carcinoma cells lysate proteins (Homo sapiens, UniProt Q13442); conditions: PreyGene PDAP1; SW480 cells
T3 sequence (Q13442 1-181): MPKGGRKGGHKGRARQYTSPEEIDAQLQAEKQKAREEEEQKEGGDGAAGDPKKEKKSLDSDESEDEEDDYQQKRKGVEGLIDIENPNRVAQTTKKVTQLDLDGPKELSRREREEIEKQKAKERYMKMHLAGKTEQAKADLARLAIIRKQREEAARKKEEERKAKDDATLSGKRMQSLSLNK

[7] = target: SW480 colon carcinoma cells lysate proteins (Homo sapiens, UniProt Q13561); conditions: PreyGene DCTN2
[8] = target: T4, SW480 colon carcinoma cells lysate proteins (Homo sapiens, UniProt Q15293); conditions: PreyGene RCN1
T4 sequence (Q15293 30-331): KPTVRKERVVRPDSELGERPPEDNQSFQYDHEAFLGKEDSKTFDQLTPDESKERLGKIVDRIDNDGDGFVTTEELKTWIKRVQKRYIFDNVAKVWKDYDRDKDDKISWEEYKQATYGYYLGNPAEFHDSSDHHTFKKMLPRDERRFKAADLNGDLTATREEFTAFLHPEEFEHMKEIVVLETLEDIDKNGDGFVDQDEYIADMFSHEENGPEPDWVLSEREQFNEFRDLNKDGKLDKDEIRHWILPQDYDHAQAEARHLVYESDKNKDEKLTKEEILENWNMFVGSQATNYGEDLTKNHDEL

[9] = target: T5, SW480 colon carcinoma cells lysate proteins (Homo sapiens, UniProt Q8NFT6); conditions: PreyGene DBF4B
T5 sequence (Q8NFT6 1-615): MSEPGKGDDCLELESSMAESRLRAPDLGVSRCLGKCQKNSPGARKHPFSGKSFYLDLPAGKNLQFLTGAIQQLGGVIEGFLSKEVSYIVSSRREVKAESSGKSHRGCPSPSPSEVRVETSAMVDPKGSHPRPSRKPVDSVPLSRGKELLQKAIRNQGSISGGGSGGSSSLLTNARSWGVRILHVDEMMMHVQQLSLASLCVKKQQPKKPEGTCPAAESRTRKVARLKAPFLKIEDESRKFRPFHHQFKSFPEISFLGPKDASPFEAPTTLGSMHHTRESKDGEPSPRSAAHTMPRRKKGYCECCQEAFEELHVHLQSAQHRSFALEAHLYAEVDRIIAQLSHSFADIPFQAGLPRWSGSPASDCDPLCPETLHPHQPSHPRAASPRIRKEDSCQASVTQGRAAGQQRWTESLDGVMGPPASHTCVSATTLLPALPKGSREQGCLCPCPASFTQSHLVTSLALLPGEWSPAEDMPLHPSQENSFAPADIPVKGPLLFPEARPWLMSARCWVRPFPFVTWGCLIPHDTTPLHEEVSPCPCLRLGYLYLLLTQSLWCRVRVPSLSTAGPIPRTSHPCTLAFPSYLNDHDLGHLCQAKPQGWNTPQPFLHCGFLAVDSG

Chain of SW480 colon carcinoma cells lysate proteins (Homo sapiens, UniProt Q13200) (Q13200 whole entry): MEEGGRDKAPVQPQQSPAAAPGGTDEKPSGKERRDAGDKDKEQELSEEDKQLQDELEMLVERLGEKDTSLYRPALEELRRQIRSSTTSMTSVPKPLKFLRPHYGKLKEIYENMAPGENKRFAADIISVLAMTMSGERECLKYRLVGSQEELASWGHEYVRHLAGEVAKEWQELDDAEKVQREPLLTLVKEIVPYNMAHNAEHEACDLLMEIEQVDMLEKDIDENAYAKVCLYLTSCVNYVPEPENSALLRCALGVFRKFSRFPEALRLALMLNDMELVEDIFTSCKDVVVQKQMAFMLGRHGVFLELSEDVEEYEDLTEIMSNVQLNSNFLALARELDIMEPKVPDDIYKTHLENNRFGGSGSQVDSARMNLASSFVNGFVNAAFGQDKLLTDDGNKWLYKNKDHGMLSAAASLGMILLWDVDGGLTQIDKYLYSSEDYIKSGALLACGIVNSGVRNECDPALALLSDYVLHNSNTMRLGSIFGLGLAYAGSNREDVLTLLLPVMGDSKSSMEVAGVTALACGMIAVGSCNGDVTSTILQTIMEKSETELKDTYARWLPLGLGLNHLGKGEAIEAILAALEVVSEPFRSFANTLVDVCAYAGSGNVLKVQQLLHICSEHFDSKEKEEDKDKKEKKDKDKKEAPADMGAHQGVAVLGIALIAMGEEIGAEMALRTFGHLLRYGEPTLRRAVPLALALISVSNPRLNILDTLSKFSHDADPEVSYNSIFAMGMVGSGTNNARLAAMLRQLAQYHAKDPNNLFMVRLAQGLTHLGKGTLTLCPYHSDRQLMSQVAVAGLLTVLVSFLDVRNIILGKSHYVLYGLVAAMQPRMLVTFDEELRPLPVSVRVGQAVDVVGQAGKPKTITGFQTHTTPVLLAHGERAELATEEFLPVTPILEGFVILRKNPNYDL
Chain of SW480 colon carcinoma cells lysate proteins (Homo sapiens, UniProt Q01105) (Q01105 whole entry): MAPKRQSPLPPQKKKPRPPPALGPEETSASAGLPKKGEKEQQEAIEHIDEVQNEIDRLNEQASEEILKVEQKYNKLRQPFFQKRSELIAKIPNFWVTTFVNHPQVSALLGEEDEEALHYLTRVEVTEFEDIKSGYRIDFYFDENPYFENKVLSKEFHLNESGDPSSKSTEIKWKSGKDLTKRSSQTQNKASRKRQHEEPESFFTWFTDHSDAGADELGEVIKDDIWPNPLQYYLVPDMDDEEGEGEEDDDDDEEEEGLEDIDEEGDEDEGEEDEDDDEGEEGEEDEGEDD
Chain of SW480 colon carcinoma cells lysate proteins (Homo sapiens, UniProt Q13561) (Q13561 whole entry): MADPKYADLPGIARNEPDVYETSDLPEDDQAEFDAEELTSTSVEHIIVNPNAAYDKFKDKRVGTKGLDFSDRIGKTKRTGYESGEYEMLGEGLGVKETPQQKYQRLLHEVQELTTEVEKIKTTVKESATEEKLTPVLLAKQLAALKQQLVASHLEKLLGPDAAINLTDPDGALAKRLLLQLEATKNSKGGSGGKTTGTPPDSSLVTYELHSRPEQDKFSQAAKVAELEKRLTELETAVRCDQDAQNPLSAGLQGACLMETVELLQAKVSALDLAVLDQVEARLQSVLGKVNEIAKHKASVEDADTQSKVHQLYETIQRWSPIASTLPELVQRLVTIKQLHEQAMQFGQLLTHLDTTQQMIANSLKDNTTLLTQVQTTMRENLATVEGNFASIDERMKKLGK
Chain of SW480 colon carcinoma cells lysate proteins (Homo sapiens, UniProt P07237) (P07237 18-508): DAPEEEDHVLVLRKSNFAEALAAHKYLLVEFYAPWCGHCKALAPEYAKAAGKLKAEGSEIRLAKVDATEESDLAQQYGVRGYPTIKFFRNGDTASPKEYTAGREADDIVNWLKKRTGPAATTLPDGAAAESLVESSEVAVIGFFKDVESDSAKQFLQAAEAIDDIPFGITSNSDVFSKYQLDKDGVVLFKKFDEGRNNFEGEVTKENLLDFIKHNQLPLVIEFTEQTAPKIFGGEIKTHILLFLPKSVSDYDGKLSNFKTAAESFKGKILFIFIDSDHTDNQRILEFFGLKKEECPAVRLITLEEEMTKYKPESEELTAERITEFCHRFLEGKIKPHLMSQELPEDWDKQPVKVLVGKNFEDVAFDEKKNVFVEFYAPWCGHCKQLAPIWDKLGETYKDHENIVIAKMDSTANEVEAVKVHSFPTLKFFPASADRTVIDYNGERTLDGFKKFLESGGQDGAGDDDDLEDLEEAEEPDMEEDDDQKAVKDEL

Question: For C[C@H](Oc1cc(-c2cnn(C3CCNCC3)c2)cnc1N)c1c(Cl)ccc(F)c1Cl [(5)-crizotinib], which AvgP [1] is on record?
Answer: 0.2785

Question: What about the “SC.Exp. 1-1” value [1] of the same compound?
Answer: 1

Question: And the “SC.Exp. 1-2” value [1]?
Answer: 2

Question: And the “SC.Exp. 2-1” value [1]?
Answer: 0

Question: What about the “SC.Exp. 2-2” value [1] of the same compound?
Answer: 0

Question: What about the “Sum (SC.Exp.)” value [1] of the same compound?
Answer: 3

Question: And the AvgP [2]?
Answer: 0.1891

Question: And the “SC.Exp. 1-1” value [2]?
Answer: 2

Question: And the “SC.Exp. 1-2” value [2]?
Answer: 0

Question: What about the “SC.Exp. 2-1” value [2] of the same compound?
Answer: 0

Question: What about the “SC.Exp. 2-2” value [2] of the same compound?
Answer: 0

Question: And the “Sum (SC.Exp.)” value [2]?
Answer: 2

Question: What about the AvgP [3] of the same compound?
Answer: 0.3981

Question: And the “SC.Exp. 1-1” value [3]?
Answer: 3

Question: And the “SC.Exp. 1-2” value [3]?
Answer: 4

Question: And the “SC.Exp. 2-1” value [3]?
Answer: 0

Question: And the “SC.Exp. 2-2” value [3]?
Answer: 0

Question: What about the “Sum (SC.Exp.)” value [3] of the same compound?
Answer: 7

Question: And the AvgP [4]?
Answer: 0.4696

Question: And the “SC.Exp. 1-1” value [4]?
Answer: 3

Question: What about the “SC.Exp. 1-2” value [4] of the same compound?
Answer: 3

Question: And the “SC.Exp. 2-1” value [4]?
Answer: 4

Question: And the “SC.Exp. 2-2” value [4]?
Answer: 3

Question: What about the “Sum (SC.Exp.)” value [4] of the same compound?
Answer: 13

Question: What about the AvgP [5] of the same compound?
Answer: 0.4359

Question: What about the “SC.Exp. 1-1” value [5] of the same compound?
Answer: 6

Question: And the “SC.Exp. 1-2” value [5]?
Answer: 5

Question: What about the “SC.Exp. 2-1” value [5] of the same compound?
Answer: 0

Question: What about the “SC.Exp. 2-2” value [5] of the same compound?
Answer: 0

Question: And the “Sum (SC.Exp.)” value [5]?
Answer: 11

Question: And the AvgP [6]?
Answer: 0

Question: And the “SC.Exp. 1-1” value [6]?
Answer: 1

Question: What about the “SC.Exp. 1-2” value [6] of the same compound?
Answer: 1

Question: What about the “SC.Exp. 2-1” value [6] of the same compound?
Answer: 0

Question: What about the “SC.Exp. 2-2” value [6] of the same compound?
Answer: 0

Question: What about the “SC.Exp. Sum” value [6] of the same compound?
Answer: 2

Question: And the AvgP [7]?
Answer: 0.2964

Question: And the “SC.Exp. 1-1” value [7]?
Answer: 2

Question: What about the “SC.Exp. 1-2” value [7] of the same compound?
Answer: 3

Question: And the “SC.Exp. 2-1” value [7]?
Answer: 0

Question: And the “SC.Exp. 2-2” value [7]?
Answer: 0

Question: And the “Sum (SC.Exp.)” value [7]?
Answer: 5

Question: And the AvgP [8]?
Answer: 0.4191

Question: And the “SC.Exp. 1-1” value [8]?
Answer: 4

Question: What about the “SC.Exp. 1-2” value [8] of the same compound?
Answer: 4

Question: What about the “SC.Exp. 2-1” value [8] of the same compound?
Answer: 0

Question: And the “SC.Exp. 2-2” value [8]?
Answer: 0

Question: And the “Sum (SC.Exp.)” value [8]?
Answer: 8

Question: What about the AvgP [9] of the same compound?
Answer: 0.2

Question: What about the “SC.Exp. 1-1” value [9] of the same compound?
Answer: 0

Question: What about the “SC.Exp. 1-2” value [9] of the same compound?
Answer: 0

Question: And the “SC.Exp. 2-1” value [9]?
Answer: 2

Question: What about the “SC.Exp. 2-2” value [9] of the same compound?
Answer: 0

Question: And the “Sum (SC.Exp.)” value [9]?
Answer: 2
